Data: patent publication US20160090351A1, “INHIBITORS OF DEUBIQUITINATING PROTEASES” (BRANDEIS UNIVERSITY, priority 2013, published 2016)
“Also recorded” adds a separate entry of the source.

Key:
[1] = tested on: Cos-1 cells; experiment: accumulation of K48- and K63-linked HMW-Ub in Cos-1 cells; format: cell-based, monkey
Procedure: A. Cos-1 cells were treated with C15 dosing every 2 h for 4 hours. Cells were lysed in standard lysis buffer (without detergent) and the sample was clarified prior to analysis. The accumulation of K48-linked ubiquitin was assayed by SDS-PAGE and by western blot. An intervening lane has been removed for clarity. B Lysates and pellet in A were sonicated in SDS at 4° C., centrifuged then analyzed by SDS-PAGE and by western blot. An intervening lane has been removed for clarity. C. Quantitation of blots in A. D. Quantitation of blots in B.
FIG. 39 depicts data showing the effects of diphenyl carbonates in whole cells. A. Cos-1 cells expressing GFP-Ub(G76V) were treated with the stated diphenyl carbonate (100 μM), bortezomib (B, 20 μM) or DMSO (D) for 8 h. GFP levels were quantified by flow cytometry. B. Cells from A were assessed for viability using propidium iodide dye exclusion assay. C. […] After this time GFP levels were quantified by flow cytometry. D. Cells from C were assessed for viability using propidium iodide dye exclusion. […] G. Cos-1 cells were treated with C15 for 2 hours then analyzed for K48-linked ubiquitin by western blot. […] I. Quantitation of blots in […] (N=3).
(§1) Transfected cells were harvested 1.5 days post transfection. […] Typically clarified lysate was analyzed.

[2] = tested on: SMAD4; experiment: SMAD4 monoubiquitination in K562 cells by western blot; format: cell-based, human
Procedure: FIG. 34 depicts data showing that diphenylcarbonates cause the accumulation of HMW-Ub and reduce the levels of Bcr-Abl in K562 cells. A. K562 cells were treated with diphenyl carbonates (50 μM) for 2 h and then assayed for the accumulation of K48-linked Ub. B. As in A, but Bcr-Abl was measured by immunoblotting with anti-Abl antibodies. C. K562 cells were treated with C17 (50 μM) in the presence and absence of bortezomib (6 μM) for 4 hours and Bcr-Abl was measured by immunblotting with anti-Abl antibodies. D. Quantitation of blot in C. Significance: DMSO relative to C17 and bortezomib p=0.002; DMSO relative to C17, p=0.03. E. K562 cells were treated with C15 for 4 hours then analyzed for SMAD4 monoubiquitination by western blot. F. Quantitation of blots in A. (N=3). See also FIG. 40.
as §1

[3] = tested on: MCF7 cells; experiment: viability and cell cycle of MCF7 cells (Alamar Blue, FACS)
Procedure: (§2) MCF7 cells were dosed every 2 hours with the indicated concentration of C15. After 6 hours, cells were lysed by freeze thaw and then sonicated in 0.5% SDS. […] MCF7 cells were treated under the stated conditions then analyzed for cell cycle. […] G. Cells treated with C17 (25 μM), dosed every 24 hours. H. Cells treated with C17 (50 μM), dosed every 24 hours. […] These cells were left for 72 h (single dose) after which time the total number of viable cells was analyzed using Alamar Blue®. All data are n≧4 showing mean+/−s.e.m. K. MCF7 cells were plated with C17 for 24 hours after which time the total number of viable cells was measured by Alamar Blue®.
(§3) All cells were grown at 37° C. in a 5% CO2 humidified atmosphere in DMEM supplemented with 10% heat inactivated FBS, 1× glutamax, and 1× penicillin/streptomycin. […] Proliferation assays were conducted by plating cells at 5% confluence in 96 well plates together with compound or 0.1% DMSO. Cells were allowed to grow for 72 hours (a 24 h dosing regimen was used for carbonate compounds) and then Alamar Blue® was added and number of cells was measured by fluorescence on a microplate reader.

[4] = tested on: USP9x, USP19, USP7/8, USP28/15; experiment: HA-Ub-VS activity profiling in cell lysates, USPs; format: biochemical, human
[5] = tested on: MCF7 cells
Procedure: as §2, §3

[6] = tested on: B16/F10 cells; experiment: proliferation and cell cycle of B16/F10 cells; format: cell-based, mouse
Procedure: A. MCF7 cells were treated with C17 for 4 h and Mdm2 levels were measured. B. As in A, P53 measured. C. As in A, P21 measured. D. MCF7 and B16/F10 cells were treated with C17 every 24 hours. After 72 hours, the number of viable cells was measured by Alamar Blue®.
MCF7 cells were dosed every 2 hours with the indicated concentration of C15. After 6 hours, cells were lysed by freeze thaw and then sonicated in 0.5% SDS. A. Total lysates were blotted for K48-linked ubiquitin and actin. B. Normalized K48-linked ubiquitin signal was plotted as a function of concentration of C15 (N=2). C. […] Doxorubicin (Dox) is a DNA damaging agent that serves as a positive control for the induction of P53. D. Quantitation of P53 levels in C relative to actin (N=2). […] MCF7 cells were treated under the stated conditions then analyzed for cell cycle. F. DMSO treated cells. G. Cells treated with C17 (25 μM), dosed every 24 hours. H. Cells treated with C17 (50 μM), dosed every 24 hours. […] These cells were left for 72 h (single dose) after which time the total number of viable cells was analyzed using Alamar Blue®. All data are n≧4 showing mean+/−s.e.m. K. MCF7 cells were plated with C17 for 24 hours after which time the total number of viable cells was measured by Alamar Blue®. L. B16/F10 cells were treated with DMSO, C17 or P005091 for 72 h. […] After this time, cells were analyzed by flow cytometry.
All cells were grown at 37° C. in a 5% CO2 humidified atmosphere in DMEM supplemented with 10% heat inactivated FBS, 1× glutamax, and 1× penicillin/streptomycin. […] Typically clarified lysate was analyzed. […] Lysates were centrifuged (20 000 rpm, microcentrifuge, Eppendorf 5417 C) concentration was measured, then 0.1% SDS was added and lysates were sonicated for a total of 30 s (in 10 s bursts). Protein concentration was determined using Bradford assay with IgG as standard and analyzed by western blot as delineated below {[9 μg total protein for K48-linked ubiquitin (1:9000 antibody dilution), SMAD4 (1:500) or PARP (1:1000)]; [30-40 μg was loaded for K63-linked ubiquitin (1:1500), Mdm2 (1:1000) or Abl (1:1500). […]

[7] = tested on: desumoylation; experiment: stabilization of SUMOylated proteins in lysates from HA-SUMO transfected HEK 293T cells; format: biochemical, human; conditions: G5 5 μM, C4 300 μM
Procedure: Untransfected HEK 293T cell lysates were treated with the vehicle alone (DMSO at 1%) or compound and incubated at 37° C. for 2 h. Samples were analyzed by SDS-PAGE and immunoblotting with antibody recognizing K48-linked ubiquitin. D=DMSO; G5=G5 isopeptidase inhibitor 1. A-D show titrations of different compounds (see FIG. 29B for structures). E-H Lysates were prepared from HEK 293T cells expressing HA-SUMO and treated with vehicle alone (DMSO, 1%) or compound. Samples were incubated for the appropriate time and analyzed by SDS-PAGE and immunoblotting with anti-HA antibody. Representative experiments are shown. E. Vehicle control. F. G5, 5 μM; G. C4, 300 μM. H. Quantification of blots as in E-G, N=2 average and range. I-J. Lysates were prepared from HEK 293T cells expressing HA-Ub and treated with either vehicle alone (1% DMSO) or compound at 37° C. for 3 h. Samples were analyzed by SDS-PAGE and immunoblotting with anti-HA antibody. I. A representative experiment. J. Quantitation of experiments in I (N=2 average and range shown). […]
Similar effects were observed when the endogenous K48-linked ubiquitin pool was monitored in lysates prepared from wild-type HEK 293T cells (FIG. 37A-D). Unfortunately, K63-linked ubiquitin could not be detected in these lysates. The ability of C4 to stabilize SUMOylated proteins in lysates from HA-SUMO transfected HEK 293T cells was also assessed.

With `NCc1ccc(OC(=O)Oc2ccc(Br)cc2)cc1` [Compound C15, 4-(aminomethyl)phenyl(4-bromophenyl)carbonate] the “increase in total K48-linked and K63-linked HMW-Ub” value [1] was 3-5 fold, the “K48-linked HMW ubiquitin, soluble versus whole cell fraction” value ([1]; dosing every 2 h for 4 hours) was “causes the accumulation of soluble HMW-Ub in Cos-1 cells; also recorded: only detectable in the soluble fraction” and the SMAD4 monoubiquitination [2] was “increased SMAD4 monoubiquitination”.

With `NCc1ccc(OC(=O)Oc2ccc3ccccc3c2)cc1` [Compound C17] the “viability after single dose, 24 h” value ([3]; Alamar Blue) was “small, but significant, decrease in viability”, the G1 phase cells ([3]; FACS, dosed every 24 hours) was “significant increase in G1 phase cells” and the “HA-Ub-VS labeling without preincubation” value ([4]; C17 25 μM immediately followed by HA-Ub-VS 1.5 μM) was “not sufficient to inhibit the labeling of any of the DUBs”. For the same compound, the “HA-Ub-VS labeling after preincubation and dilution” value ([4]; C17 250 μM preincubated, diluted 10-fold) was “labeling was reduced”, the “cytotoxicity after single dose, 72 h” value [5] was “no cytotoxicity was observed” and the “decrease of cell viability” value [5] was 50%. The cell cycle distribution ([6]; 72 h, flow cytometry) was “decrease in cells in G1 phase and an increase in G2” and the proliferation ([6]; 72 hours, dosed every 24 hours) was “inhibited proliferation in B16/F10 cells”.

With `O=C1/C(=C/c2ccc([N+](=O)[O-])cc2)CS(=O)(=O)C/C1=C\c1ccc([N+](=O)[O-])cc1` [Compound G5, reference compound] the inhibition of desumoylation [7] was “Neither G5 nor C4 inhibited desumoylation”.
